Measurements published in US12060338B2, “Benzothia(di)azepine compounds and their use as bile acid modulators” (Albireo AB, priority 2019, dated 2024).

How the values were obtained:
Human LBAT = target: T1, Human LBAT (Homo sapiens, UniProt Q14973); test: LBAT assay, 3H-taurocholic acid uptake in human LBAT-overexpressing cells; type: cell-based; settings: read-out: hLBAT IC50
T1 construct: expressed in transfected cells; kept under Geneticin selection
T1 sequence (Q14973 1-349): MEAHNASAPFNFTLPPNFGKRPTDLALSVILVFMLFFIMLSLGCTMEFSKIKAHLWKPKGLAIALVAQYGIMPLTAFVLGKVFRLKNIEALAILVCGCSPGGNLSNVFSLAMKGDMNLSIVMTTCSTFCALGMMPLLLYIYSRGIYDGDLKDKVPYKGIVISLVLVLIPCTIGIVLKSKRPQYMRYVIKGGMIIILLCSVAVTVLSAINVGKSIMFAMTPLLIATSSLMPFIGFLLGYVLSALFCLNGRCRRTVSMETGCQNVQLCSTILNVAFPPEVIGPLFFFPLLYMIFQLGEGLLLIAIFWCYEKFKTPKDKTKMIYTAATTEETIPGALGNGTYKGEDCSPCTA
Procedure: (§1) 20,000 cells (Human or Mouse LBAT-overexpressing cells) were seeded in 96-wells plate (Corning CLS3809) in 100 μL MEM-alpha medium (Gibco 12571-063) supplemented with 10% FBS (Gibco 10438026) containing Geneticin (Gibco 10131-027) (1 mg/mL) and incubated at 37° C. in 5% CO2 for 24 hours. After incubation, media was decanted from the wells and cells were washed two times with 300 μL of basal MEM-alpha medium (FBS-free). After decanting basal MEM-alpha medium each time, plates were tapped against paper towel to ensure maximum removal of residual media.
For human LBAT, incubation mix was prepared by adding test inhibitor dilutions (3-fold serial dilution in DMSO (Sigma D2650), 10 points) in MEM-alpha (without FBS) containing 0.3 μM 3H-taurocholic acid (ARC ART-1368) and 7.5 μM cold taurocholic acid (Sigma T4009) (maintaining 0.2% final DMSO concentration). For mouse LBAT, incubation mix was prepared by adding test inhibitor dilutions (3-fold serial dilution in DMSO, 10 points) in MEM-alpha (without FBS) containing 0.3 μM 3H-taurocholic acid and 25 μM cold taurocholic acid maintaining 0.2% final DMSO concentration).
50 μL of incubation mix containing test inhibitors was then added to the wells (in duplicate) and the plates were incubated for 20 minutes in a CO2 incubator at 37° C. After incubation, the reaction was stopped by keeping the plates on ice water mix for 2-3 minutes and then the incubation mix was aspirated completely from the wells. The wells were washed two times with 250 μL of chilled unlabelled 1 mM taurocholic acid dissolved in HEPES (Gibco 15630080)-buffered (10 mM) HBSS (Gibco 14175079) (pH 7.4). The plates were tapped against a paper towel after every wash to ensure maximum removal of blocking buffer.
100 μL of MicroScint-20 (PerkinElmer 6013621) was added to the wells and kept overnight at room temperature before reading the plates in TopCount NXT™ Microplate Scintillation and Luminescence Counter from PerkinElmer under 3H Test protocol (set at 120 seconds reading time per well, with normal plate orientation).
(§2) All test compounds were provided in powder form at room temperature. 10 mM DMSO stocks of the test compounds were prepared, aliquoted and stored at −20° C. From the 10 mM DMSO stock of the compounds, a 3-fold serial dilution in DMSO was prepared to get a total of 10 dilutions of the test compounds. 0.5 μL of this dilution in DMSO was added to 250 μL of FBS-free basal media containing 3H-taurocholic acid and cold taurocholic acid to prepare the incubation mixture.

[1] = Bidirectional permeability assay (Caco-2 cells); type: in vitro ADME; settings: human; for Papp A→B at 120 min, 10 µM: Caco-2, pH 7.4, absorptive direction A2B; for Papp B→A at 120 min, 10 µM: Caco-2, pH 7.4, secretory direction B2A
Description: HepaRG-Based Assay Protocol

Human IBAT = target: T2, Human IBAT (Homo sapiens, UniProt Q12908); test: IBAT assay, 3H-taurocholic acid uptake in human IBAT-overexpressing cells; type: cell-based; settings: read-out: hIBAT IC50
T2 construct: expressed in transfected cells; kept under Puromycin selection
T2 sequence (Q12908 1-348): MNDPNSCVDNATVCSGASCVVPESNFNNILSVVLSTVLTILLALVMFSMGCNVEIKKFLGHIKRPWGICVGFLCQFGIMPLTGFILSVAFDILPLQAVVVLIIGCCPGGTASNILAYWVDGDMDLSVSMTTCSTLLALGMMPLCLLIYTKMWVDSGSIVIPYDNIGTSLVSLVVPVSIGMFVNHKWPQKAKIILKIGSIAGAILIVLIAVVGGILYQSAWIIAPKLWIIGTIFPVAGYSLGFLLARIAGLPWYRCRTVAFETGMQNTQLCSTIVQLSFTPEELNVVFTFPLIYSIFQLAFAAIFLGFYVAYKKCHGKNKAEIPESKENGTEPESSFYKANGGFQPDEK
Procedure: as §1, with “10,000” for “20,000”, “IBAT-overexpressing” for “LBAT-overexpressing”, “200” for “100”, “Puromycin” for “Geneticin”, “A1113803) (10 μg/mL)” for “10131-027) (1 mg/mL)”, “48” for “24”
Test inhibitor dilutions (highest test concentration being 10 μM, 3-fold serial dilution, 10 points) prepared in DMSO (Sigma D2650) were added in incubation mix (maintaining 0.2% final DMSO concentration) containing 0.25 μM 3H-taurocholic acid (ARC ART-1368) and 5 μM of cold taurocholic acid (Sigma T4009). 50 μL of incubation mix containing test inhibitors was then added to the wells (in duplicate) and the plates were incubated for 20 minutes in a CO2 incubator at 37° C. After incubation, the reaction was stopped by keeping the plates on ice water mix for 2-3 minutes and then the incubation mix was aspirated completely from the wells. The wells were washed two times with 250 μL of chilled unlabelled 1 mM taurocholic acid dissolved in HEPES (Gibco 15630080)-buffered (10 mM) HBSS (Gibco 14175079) (pH 7.4). The plates were tapped against a paper towel after every wash to ensure maximum removal of blocking buffer.
100 μL of MicroScint-20 (PerkinElmer 6013621) was added to the wells and kept overnight at room temperature before reading the plates in TopCount NXT™ Microplate Scintillation and Luminescence Counter from PerkinElmer under 3H Test protocol (set at 120 seconds reading time per well).
as §2

urinary total bile acids = test: Urinary bile acid output in dogs; type: in vivo; settings: male Beagle dogs, once daily for three days at 10 and 50 mg/kg
Procedure: Male Beagle dogs were used in the study. Animals were dosed with the compound of Example 2 once daily for three days at 10 and 50 mg/kg, respectively. Basal urine samples were collected before study start by cystocentesis. Urine samples were then collected at 2 h and 8 h post-dosing on Day 1 and Day 3. Urine bile acids and urine creatinine analyses were performed at a clinical chemistry lab.

[2] = Bioavailability study in mice; type: in vivo; settings: male, mouse, plasma, 1 mg/kg intravenous, 10 mg/kg oral
Procedure: (§3) Male mice (C57BL/6 or CD1) or Wistar rats of 8-10 weeks old were used. For each test compound, two groups of 3 animals each were used. One group was administered a single intravenous dose of 1 mg/kg (vehicle 100% DMSO) through the tail vein and the other group was administered a single oral dose of 10 mg/kg through gavage needle. The group that was administered an oral dose was fasted overnight. Blood samples were collected after 0.083, 0.25, 0.5, 1, 2, 4, 6, 8 and 24 hours following intravenous administration, and after 0.25, 0.5, 1, 2, 4, 6, 8 and 24 hours following oral administration. Blood samples were taken from saphenous vein. 0.2% EDTA was used as the anticoagulant. The samples were analyzed by a discovery grade bioanalytical method developed for the estimation of test compound in plasma, using an LC-MS/MS system.

[3] = Bioavailability study in rats; type: in vivo; settings: male, Wistar, plasma; rat; 1 mg/kg intravenous, 10 mg/kg oral
Procedure: as §3

SMILES	IC50 (Human LBAT)	Papp A→B at 120 min, 10 µM [1]	Papp B→A at 120 min, 10 µM [1]	IC50 (Human IBAT)	urinary total bile acids increase versus baseline (urinary total bile acids)	bioavailability ([2]; C57BL/6 mice)	bioavailability ([2]; CD1 mice)	bioavailability [3]
CCCC1(C)CN(c2ccccc2)c2cc(SC)c(OC=CC(=O)O)cc2S(=O)(=O)C1 (single isomer, unassigned) [Example 5]	32 nM	–	–	–	–	–	–	–
CCCC[C@@]1(C)CN(c2ccccc2)c2cc(SC)c(O/C=C(\F)C(=O)O)cc2S(=O)(=O)C1 (single isomer, unassigned) [Example 3]	9.2 nM	3.6 ×10⁻⁶ cm/s	9.3 ×10⁻⁶ cm/s	735 nM	–	–	–	–
CCCC1(C)CN(c2ccccc2)c2cc(SC)c(O/C=C(\F)C(=O)O)cc2S(=O)(=O)C1 (centres unmarked) [Example 7, (Z)-2-fluoro-3-((3-methyl-7-(methylthio)-1,1-dioxido-5-phenyl-3-propy-2,3,4,5-tetrahydro-1,5-benzothiazepin-8-yl)oxy)acrylic acid]	23 nM	–	–	435 nM	–	–	–	–
CCC[C@]1(C)CN(c2ccccc2)c2cc(SC)c(O/C=C/C(=O)O)cc2S(=O)(=O)C1 (single isomer, unassigned) [Example 6]	1050 nM	–	–	678 nM	–	–	–	–
CCC[C@@]1(C)CN(c2ccccc2)c2cc(SC)c(O/C=C(\F)C(=O)O)cc2S(=O)(=O)C1 (single isomer, unassigned) [Example 9]	56 nM	–	–	186 nM	–	–	–	–
CCC[C@]1(C)CN(c2ccccc2)c2cc(SC)c(O/C=C(\F)C(=O)O)cc2S(=O)(=O)C1 (single isomer, unassigned) [Example 8]	5.2 nM	3.6 ×10⁻⁶ cm/s	6.2 ×10⁻⁶ cm/s	465 nM	–	–	–	–
CCCC[C@]1(C)CN(c2ccccc2)c2cc(SC)c(O/C=C(\F)C(=O)O)cc2S(=O)(=O)C1 (single isomer, unassigned) [Example 2]	17.4 nM	3.6 ×10⁻⁶ cm/s	6.6 ×10⁻⁶ cm/s	22.7 nM	5- to 10 fold	15.7%	32.1 to 55.7%	34.5%
CCCC1(C)CN(c2ccccc2)c2cc(SC)c(O/C=C/C(=O)O)cc2S(=O)(=O)C1 (centres unmarked) [Example 4, (E)-3-((3-methyl-7-(methylthio)-1,1-dioxido-5-phenyl-3-propy-2,3,4,5-tetrahydro-1,5-benzothiazepin-8-yl)oxy)acrylic acid]	66 nM	–	–	564 nM	–	–	–	–
CCCCC1(C)CN(c2ccccc2)c2cc(SC)c(O/C=C(\F)C(=O)O)cc2S(=O)(=O)C1 (centres unmarked) [Example 1, (Z)-3-((3-buty-3-methyl-7-(methylthio)-1,1-dioxido-5-phenyl-2,3,4,5-tetrahydro-1,5-benzothiazepin-8-yl)oxy)-2-fluoroacrylic acid]	14.4 nM	–	–	23.7 nM	–	–	–	–
CCC1(C)CN(c2ccccc2)c2cc(SC)c(O/C=C(\F)C(=O)O)cc2S(=O)(=O)C1 (centres unmarked) [Example 10, (Z)-3-((3-ethyl-3-methyl-7-(methylthio)-1,1-dioxido-5-phenyl-2,3,4,5-tetrahydro-1,5-benzothiazepin-8-yl)oxy)-2-fluoroacrylic acid]	83 nM	–	–	906 nM	–	–	–	–
